According to US12661357B2, “Use of pyrido[1,2-a]pyrimidone analogue” (GUANGZHOU JOYO PHARMATECH CO., LTD, priority 2021, dated 2026):
Like-named read-outs stand apart in the source and are kept apart here.

Legend:
[1] = system: human-derived colorectal cancer CO-04-0032 subcutaneous xenograft tumor; assay: In vivo efficacy, CO-04-0032 subcutaneous xenograft tumor model; design: species or system BALB/c nude mice; details: for Tumor volume (Day 28): mean ± SEM
Description: Experimental purpose: Study the in vivo efficacy of the test drug on human-derived colorectal cancer CO-04-0032 subcutaneous xenograft tumor model in nude mice.
Experimental design: • (1) Animals: BALB/c nude mice, female, 6 weeks old, weighing 16-18 grams. […] CO-04-0032 was a PDX model of human-derived colon cancer independently developed by WuXi AppTec New Drug Development Co., Ltd. See Table 5 below for the experimental grouping and dosing regimen.

[2] = system: TE-1 esophageal cancer cells; assay: CTG cell proliferation IC50, TE-1; assay type: cell-based; details: TE-1 cells, read-out: Absolute IC50
Description: (§1) • 2). IC50 value: the concentration of inhibitor when 50% inhibitory effect was achieved; • 3). CAL-27 and RPMI 2650: head and neck cancer cell models; HepG2: hepatocellular cancer cells. CAL-27, RPMI 2650 and HepG2 cells were purchased from ATCC, where ATCC® No. was CRL-2095™, CCL-30™, HB-8065™, respectively. • 4). Both KYSE-150 and TE-1 were esophageal cancer cell models. The KYSE-150 cell line was purchased from DSMZ (German Collection of Microorganisms and Cell Cultures), and the DSMZ No. was ACC375; the TE-1 cell line was purchased from National Collection of Authenticated Cell Cultures, catalog number: TCHu89. • 5). RPMI 1640/F12 medium was a 1:1 mixture of RPMI 1640 medium and F12 medium. • 6). The percentages in 10% FBS in Table 1 and Table 2 were volume percentages. (2) Reagents • 1). FBS (fetal bovine serum) (purchased from ExCell, product number: FND500); • 2). MEM medium (purchased from Hyclone, product number: SH30024.01; • 3). DMEM medium (purchased from Gibco, product number: C11995500BT); • 4). MEM NEAA (purchased from Gibco, product number: 11140-050); • 5). RPMI1640 Culture medium (purchased from Gibco, product number: 11875-119); • 6). F12 Culture medium (purchased from Gibco, product number: 11765-054); (3) Test Article and Positive Control Article
(§2) 2. CTG Method was Used to Determine the Cell Proliferation IC50 of the Compound
(§3) • Step 1: Cells in exponential growth phase were harvested, and viable cells were counted with a Vi-Cell XR cytometer. The cell suspension was adjusted to an appropriate concentration with medium. 90 μL of cell suspension was added to each well of a 96-well cell culture plate, and the final cell concentration was 1500-6000 cells/well. • Step 2: The initial concentration of administration of compound I is 3 μM, and the initial concentration of administration of the control drug Alpelisib and Cisplatin was 10 μM, serially diluted 3-fold, a total of 9 concentration gradients and a DMSO control, the final concentration of DMSO in each well was 0.1%, placed in a 37° C., 5% CO2 incubator for 72 hours. • Step 3: After 72 hours of drug treatment, 50 μL (½ culture volume) CTG solution that was melted and equilibrated to room temperature was added to each well according to the CTG operation instructions. […] After 10 minutes, the fluorescence signal value was measured with an Envision2104 plate reader. […]
(§4) Cell survival rate was calculated using the formula: Vsample/Vvehicle control×100%. Where, Vsample was the reading of the drug treatment group, and Vvehicle control was the average value of the solvent control group. GraphPad Prism 5.0 software was used, and a S-type dosage-survival rate curve was drawn using a nonlinear regression model and IC50 value was calculated.

[3] = system: KYSE-150 esophageal cancer cells; assay: CTG cell proliferation IC50, KYSE-150; assay type: cell-based; details: KYSE-150 cells, read-out: Absolute IC50
Description: as §1, §2, §3, §4

[4] = system: CAL-27 head and neck cancer cells; assay: CTG cell proliferation IC50, CAL-27; assay type: cell-based; details: CAL-27 cells, 72 hours, read-out: Absolute IC50
Description: as §1, §2
(§5) • Step 1: Cells in exponential growth phase were harvested, and viable cells were counted with a Vi-Cell XR cytometer. The cell suspension was adjusted to an appropriate concentration with medium. […] After 10 minutes, the fluorescence signal value was measured with an Envision2104 plate reader. […]
as §4

[5] = system: RPMI2650 head and neck cancer cells; assay: CTG cell proliferation IC50, RPMI 2650; assay type: cell-based; details: 72 hours, read-out: Absolute IC50
Description: as §1, §2, §5, §4

[6] = 5 mg/kg, oral, once a day for 28 days
[7] = 20 mg/kg, vein, once a week, day 28

Question: With `CO[C@H]1C[C@@H]2CC[C@@H](C)[C@@](O)(O2)C(=O)C(=O)N2CCCC[C@H]2C(=O)O[C@H]([C@H](C)C[C@@H]2CC[C@@H](OCCO)[C@H](OC)C2)CC(=O)[C@H](C)/C=C(\C)[C@@H](O)[C@@H](OC)C(=O)[C@H](C)C[C@H](C)/C=C/C=C/C=C/1C` [Everolimus, reference compound] as the compound, how does the T/C [1, 6] read?
Answer: Its T/C is 42%.

Question: What about the TGI [1, 6] of the same compound?
Answer: The TGI was 60%.

Question: What about the “Tumor volume (Day 28)” value [1, 6] of the same compound?
Answer: Its value is 739 ± 206 mm^3.

Question: For `Cc1nc(NC(=O)N2CCC[C@H]2C(N)=O)sc1-c1ccnc(C(C)(C)C(F)(F)F)c1` [Alpelisib, reference compound], which IC50 ([2]; Homo sapiens, TE-1, 72 h) is on record?
Answer: Its IC50 is > 2000 nM.

Question: And the IC50 ([2]; 72 hours)?
Answer: The IC50 was > 3000 nM.

Question: And the IC50 ([3]; Homo sapiens, KYSE-150, 72 h)?
Answer: The IC50 was > 2000 nM.

Question: And the IC50 ([3]; 72 hours)?
Answer: Its IC50 is 2110 nM.

Question: `N.N.[Cl][Pt][Cl]` [Cisplatin, reference compound] was tested. Which IC50 [4] did it give?
Answer: The IC50 was 4370 nM.

Question: What about the IC50 [5] of the same compound?
Answer: Its IC50 is 4250 nM.

Question: For `CN(C)C1CCN(C(=O)c2ccc(NC(=O)Nc3ccc(-c4nc(N5CCOCC5)nc(N5CCOCC5)n4)cc3)cc2)CC1` [PF05212384, reference compound], which T/C [1, 7] is on record?
Answer: The T/C was 68%.

Question: What about the TGI [1, 7] of the same compound?
Answer: Its TGI is 44%.

Question: What about the “Tumor volume (Day 28)” value [1, 7] of the same compound?
Answer: The value was 971 ± 249 mm^3.
